Assay results: patent publication US8563714B2, “Bridged spiro [2.4] heptane derivatives as ALX receptor and/or FPRL2 agonists” (Actelion Pharmaceuticals Ltd., priority 2009, dated 2013)

Columns and labels:
[1] = target: T1, human FPRL2 (Homo sapiens, UniProt P25089); assay: Intracellular calcium measurements (FLIPR), agonistic activity in HEK293-hFPRL2-Gα16 cells; type: cell-based; settings: Fluo-4 calcium FLIPR, normalized to GLY14-Humanin 100 nM
T1 construct: expressed in transfected cells; host or cells: HEK293 (HEK293-hFPRL2-Gα16)
T1 sequence (P25089 1-353): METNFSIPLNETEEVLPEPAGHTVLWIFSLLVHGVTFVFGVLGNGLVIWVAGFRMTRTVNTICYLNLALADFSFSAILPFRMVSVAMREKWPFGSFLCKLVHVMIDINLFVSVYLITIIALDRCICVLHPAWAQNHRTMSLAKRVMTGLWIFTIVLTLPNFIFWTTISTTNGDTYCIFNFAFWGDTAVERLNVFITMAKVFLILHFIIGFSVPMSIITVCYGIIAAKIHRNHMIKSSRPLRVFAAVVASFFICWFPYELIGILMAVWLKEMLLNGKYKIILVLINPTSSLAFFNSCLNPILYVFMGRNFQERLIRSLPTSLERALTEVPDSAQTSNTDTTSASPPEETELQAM
Procedure, shortened: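 Peak values after baseline subtraction are expressed relative to 100 nM Gly14-Humanin; compounds diluted in assay buffer from 10 mM DMSO stocks.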

[2] = target: T2, human ALX receptor (Homo sapiens, UniProt P25090); assay: Intracellular calcium measurements (FLIPR), agonistic activity in HEK293-hALXR-Gα16 cells; type: cell-based; settings: Fluo-4 calcium FLIPR, normalized to WKYMVm 10 nM
T2 construct: expressed in transfected cells; host or cells: HEK293 (HEK293-hALXR-Gα16)
T2 sequence (P25090 1-351): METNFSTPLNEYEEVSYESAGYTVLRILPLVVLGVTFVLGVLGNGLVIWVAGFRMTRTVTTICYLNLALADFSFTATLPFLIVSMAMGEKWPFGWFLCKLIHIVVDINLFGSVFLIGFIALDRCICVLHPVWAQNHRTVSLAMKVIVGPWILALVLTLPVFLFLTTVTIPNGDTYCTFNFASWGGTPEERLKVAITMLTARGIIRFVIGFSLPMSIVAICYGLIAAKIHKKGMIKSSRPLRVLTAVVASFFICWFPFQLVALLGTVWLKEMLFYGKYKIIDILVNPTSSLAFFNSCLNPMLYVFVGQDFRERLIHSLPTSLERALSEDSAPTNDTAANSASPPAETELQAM
Procedure, shortened: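 HEK293 cells expressing hALXR and Gα16 were loaded with 1 μM Fluo-4 AM and 20 mM HEPES for 60 min at 37°C, then exposed to serially diluted compound. FLIPR fluorescence was read at ex 488/em 540 nm. Baseline-subtracted peak responses were normalized to 10 nM WKYMVm.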

| Compound | EC50 [1] [nM] | EC50 [2] [nM] |
| --- | --- | --- |
| O=C(NCCCCN1CCCC1)[C@H]1[C@H](C(=O)NCc2ccc(I)cc2)[C@@H]2C=C[C@H]1C21CC1 (racemic) [Example 200, (5R*)—N^5-(4-Iodophenyl-methyl)-(6R*)—N^6-(4-pyrrolidin-1-yl-butyl)-(4S*,7R*)-[4,7-ethenylene-spiro[2.4]heptane]-5,6-dicarboxamide] | 236 | 42 |
| CC(C)Cc1cc(CNC(=O)[C@H]2[C@H](C(=O)NCCCCN3CCCC3)[C@H]3C=C[C@@H]2C32CC2)no1 (racemic) [Example 201, (5R*)—N^5-(5-(iso-Butyl)-isoxazol-3-yl-methyl)-(6R*)—N^6-(4-pyrrolidin-1-yl-butyl)-(4S*,7R*)-[4,7-ethenylene-spiro[2.4]heptane]-5,6-dicarboxamide] | 1440 | 93 |
| O=C(NCCCCN1CCCC1)[C@H]1[C@H](C(=O)NCc2csc(Br)c2)[C@@H]2C=C[C@H]1C21CC1 (racemic) [Example 202, (5R*)—N^5-(2-Bromo-thiophen-4-yl-methyl)-(6R*)—N^6-(4-pyrrolidin-1-yl-butyl)-(4S*,7R*)-[4,7-ethenylene-spiro[2.4]heptane]-5,6-dicarboxamide] | 75 | 33 |
| O=C(NCCCCN1CCCC1)[C@H]1[C@H](C(=O)NCc2ccc(Br)cc2F)[C@@H]2C=C[C@H]1C21CC1 (racemic) [Example 203, (5R*)—N^5-(2-Fluoro-4-bromophenyl-methyl)-(6R*)—N^6-(4-pyrrolidin-1-yl-butyl)-(4S*,7R*)-[4,7-ethenylene-spiro[2.4]heptane]-5,6-dicarboxamide] | 200 | 24 |
| CN(C)C(=O)CCNC(=O)[C@H]1[C@H](C(=O)Nc2ccc(Br)cc2)[C@@H]2C=C[C@H]1C21CC1 (racemic) [Example 204, (5R*)—N^5-(4-Bromophenyl)-(6R*)—N^6-(3-dimethylamino-3-oxopropyl)-(4S*,7R*)-[4,7-ethenylene-spiro[2.4]heptane]-5,6-dicarboxamide] | 2080 | 3.4 |
| NC(=O)CCCNC(=O)[C@H]1[C@H](C(=O)Nc2ccc(Br)cc2)[C@@H]2C=C[C@H]1C21CC1 (racemic) [Example 205, (5R*)—N^5-(4-Bromophenyl)-(6R*)—N^6-(4-amino-4-oxobutyl)-(4S*,7R*)-[4,7-ethenylene-spiro[2.4]heptane]-5,6-dicarboxamide] | 4780 | 7.3 |
| O=C(NCCC(=O)N1CCCC1)[C@H]1[C@H](C(=O)Nc2ccc(Br)cc2)[C@@H]2C=C[C@H]1C21CC1 (racemic) [Example 206, (5R*)—N^5-(4-Bromophenyl)-(6R*)—N^6-(3-pyrrolidino-3-oxopropyl)-(4S*,7R*)-[4,7-ethenylene-spiro[2.4]heptane]-5,6-dicarboxamide] | 2980 | 31 |
| NC(=O)CNC(=O)[C@H]1[C@H](C(=O)Nc2ccc(Br)cc2)[C@@H]2C=C[C@H]1C21CC1 (racemic) [Example 207, (5R*)—N^5-(4-Bromophenyl)-(6R*)—N^6-(2-amino-2-oxoethyl)-(4S*,7R*)-[4,7-ethenylene-spiro[2.4]heptane]-5,6-dicarboxamide] | 7430 | 6.5 |
| CNC(=O)CCNC(=O)[C@H]1[C@H](C(=O)Nc2ccc(Br)cc2)[C@@H]2C=C[C@H]1C21CC1 (racemic) [Example 223, (5R*)—N^5-(4-Bromophenyl)-(6R*)—N^6-(3-methylamino-3-oxopropyl)-(4S*,7R*)-[4,7-ethenylene-spiro[2.4]heptane]-5,6-dicarboxamide] | 1210 | 3.2 |
| CC(=O)c1ncc(CNC(=O)[C@H]2[C@H](C(=O)NCCCCN3CCCC3)[C@H]3C=C[C@@H]2C32CC2)s1 (racemic) [Example 224, (5R*)—N^5-(2-Acetyl-thiazol-5-yl-methyl)-(6R*)—N^6-(4-pyrrolidin-1-yl-butyl)-(4S*,7R*)-[4,7-ethenylene-spiro[2.4]heptane]-5,6-dicarboxamide] | 1860 | 994 |
| COc1cc(F)c(CNC(=O)[C@H]2[C@H](C(=O)NCCCCN3CCCC3)[C@H]3C=C[C@@H]2C32CC2)c(F)c1 (racemic) [Example 226, (5R*)—N^5-(2,6-Difluoro-4-methoxy-phenyl-methyl)-(6R*)—N^6-(4-pyrrolidin-1-yl-butyl)-(4S*,7R*)-[4,7-ethenylene-spiro[2.4]heptane]-5,6-dicarboxamide] | 356 | 912 |
| COc1ccc(CNC(=O)[C@H]2[C@H](C(=O)NCCCCN3CCCC3)[C@H]3C=C[C@@H]2C32CC2)c(F)c1F (racemic) [Example 227, (5R*)—N^5-(2,3-Difluoro-4-methoxy-phenyl-methyl)-(6R*)—N^6-(4-pyrrolidin-1-yl-butyl)-(4S*,7R*)-[4,7-ethenylene-spiro[2.4]heptane]-5,6-dicarboxamide] | 89 | 290 |
| COc1ccc(CNC(=O)[C@H]2[C@H](C(=O)NCCCCN3CCCC3)[C@H]3C=C[C@@H]2C32CC2)cc1F (racemic) [Example 228, (5R*)—N^5-(3-Fluoro-4-methoxy-phenyl-methyl)-(6R*)—N^6-(4-pyrrolidin-1-yl-butyl)-(4S*,7R*)-[4,7-ethenylene-spiro[2.4]heptane]-5,6-dicarboxamide] | 308 | 389 |
| COc1c(F)cc(CNC(=O)[C@H]2[C@H](C(=O)NCCCCN3CCCC3)[C@H]3C=C[C@@H]2C32CC2)cc1F (racemic) [Example 229, (5R*)—N^5-(3,5-Difluoro-4-methoxy-phenyl-methyl)-(6R*)—N^6-(4-pyrrolidin-1-yl-butyl)-(4S*,7R*)-[4,7-ethenylene-spiro[2.4]heptane]-5,6-dicarboxamide] | 67 | 119 |
| O=C(NCCCCN1CCCC1)[C@H]1[C@H](C(=O)NCc2ccc(Cl)cc2)[C@@H]2C=C[C@H]1C21CC1 (racemic) [Example 230, (5R*)—N^5-(4-Chloro-phenyl-methyl)-(6R*)—N^6-(4-pyrrolidin-1-yl-butyl)-(4S*,7R*)-[4,7-ethenylene-spiro[2.4]heptane]-5,6-dicarboxamide] | 65 | 31 |
| O=C(NCCCCN1CCCC1)[C@H]1[C@H](C(=O)NCc2ccc(F)cc2)[C@@H]2C=C[C@H]1C21CC1 (racemic) [Example 231, (5R*)—N^5-(4-Fluoro-phenyl-methyl)-(6R*)—N^6-(4-pyrrolidin-1-yl-butyl)-(4S*,7R*)-[4,7-ethenylene-spiro[2.4]heptane]-5,6-dicarboxamide] | 159 | 514 |
| O=C(NCCCCN1CCCC1)[C@H]1[C@H](C(=O)NCc2ccc(OC(F)(F)F)cc2)[C@@H]2C=C[C@H]1C21CC1 (racemic) [Example 232, (5R*)—N^5-(4-Trifluoromethoxy-phenyl-methyl)-(6R*)—N^6-(4-pyrrolidin-1-yl-butyl)-(4S*,7R*)-[4,7-ethenylene-spiro[2.4]heptane]-5,6-dicarboxamide] | 112 | 1260 |
| CC(C)Oc1ccc(CNC(=O)[C@H]2[C@H](C(=O)NCCCCN3CCCC3)[C@H]3C=C[C@@H]2C32CC2)cc1 (racemic) [Example 233, (5R*)—N^5-(4-Isopropoxy-phenyl-methyl)-(6R*)—N^6-(4-pyrrolidin-1-yl-butyl)-(4S*,7R*)-[4,7-ethenylene-spiro[2.4]heptane]-5,6-dicarboxamide] | 197 | 7220 |
| O=C(NCCCCN1CCCC1)[C@H]1[C@H](C(=O)NCc2nc(Br)cs2)[C@@H]2C=C[C@H]1C21CC1 (racemic) [Example 234, (5R*)—N^5-(4-Bromo-thiazol-2-yl-methyl)-(6R*)—N^6-(4-pyrrolidin-1-yl-butyl)-(4S*,7R*)-[4,7-ethenylene-spiro[2.4]heptane]-5,6-dicarboxamide] | 176 | 73 |
| CC(=O)c1nc(CNC(=O)[C@H]2[C@H](C(=O)NCCCCN3CCCC3)[C@H]3C=C[C@@H]2C32CC2)co1 (racemic) [Example 235, (5R*)—N^5-(2-Acetyl-oxazol-4-yl-methyl)-(6R*)—N^6-(4-pyrrolidin-1-yl-butyl)-(4S*,7R*)-[4,7-ethenylene-spiro[2.4]heptane]-5,6-dicarboxamide] | 181 | 153 |
